Test results as given in article PMC9821843, “Powerful Potential of Polyfluoroalkyl-Containing 4-Arylhydrazinylidenepyrazol-3-ones for Pharmaceuticals” (Molecules, 2022).
Values after ≈ are worked out from the molar mass of the structure shown. Like-named read-outs stand apart in the source and are kept apart here.

What was measured:
[1] = biological target: T1, equine serum butyrylcholinesterase (BChE, EC 3.1.1.8) (Equus caballus, UniProt P81908); assay: Inhibition of equine serum butyrylcholinesterase (Ellman assay); type: biochemical; details: read-out: Inhibition % at 20 µM, Equine BChE
T1 construct: equine serum butyrylcholinesterase (BChE, EC 3.1.1.8); purchased Sigma-Aldrich (Saint Louis, MO, USA); host or cells: equine serum
Description: The following enzymes were purchased from Sigma-Aldrich (Saint Louis, MO, USA): porcine liver carboxylesterase (CES, EC 3.1.1.1), human erythrocyte acetylcholinesterase (AChE, EC 3.1.1.7) and equine serum butyrylcholinesterase (BChE, EC 3.1.1.8). Substrates for CES, AChE and BChE were 4-nitrophenyl acetate (4-NPA), acetylthiocholine iodide (ATCh) and butyrylthiocholine iodide (BTCh), respectively, and the colorimetric reagent for the AChE and BChE assays was 5,5’-dithio-bis-(2-nitrobenzoic acid) (DTNB) (Sigma-Aldrich). All the kinetic experiments were performed under standard conditions, according to the protocol of IPAC RAS for a reversible inhibitors study.
Final concentrations of reactants were 0.33 mM DTNB, 0.02 unit/mL of AChE or BChE and 1 mM of substrate (ATCh or BTCh, respectively). Reagent blanks consisted of reaction mixtures without enzyme to assess non-enzymatic hydrolysis of substrates.
Test compounds were dissolved in DMSO. Reaction mixtures contained a final DMSO concentration of 2% (v/v). […] Substrate was then added and residual enzyme activity relative to an inhibitor-free control was measured using a Bio-Rad Benchmark Plus microplate reader (Marnes-la-Coquette, France).
Measurements were performed in a Bio-Rad Benchmark Plus microplate reader. Each experiment was performed in triplicate. Plots, linear regressions and values of IC50, were determined using Origin 6.1 for Windows, OriginLab (Northampton, MA, USA).

[2] = ABTS radical cation scavenging activity assay; parameters: key to ABTS•+-scavenging activity, TEAC (trolox equivalent antioxidant capacity): TEAC = ratio of compound slope to Trolox slope vs ABTS absorbance; details: mean ± SEM; for ABTS•+-scavenging activity, TEAC (trolox equivalent antioxidant capacity): n.a. = inactive
Method: Radical scavenging activity of the compounds was evaluated by the ABTS radical cation (ABTS^•+) scavenging assay by the ability of the compounds to decolorize the ABTS^•+ solution [112] with some modifications. Trolox was used as a reference standard. Edaravone was used as the comparison compound. All tested compounds and standards were dissolved in DMSO. ABTS (2,2′-azinobis-(3-ethylbenzothiazoline-6-sulfonic acid)) was purchased from Tokyo Chemical Industry Co. Ltd. (Tokyo, Japan). Potassium persulfate (di-potassium peroxdisulfate), Trolox® (6-hydroxy-2,5,7,8-tetramethychroman-2-carboxylic acid), ascorbic acid, DMSO and HPLC-grade ethanol were obtained from Sigma-Aldrich Chemical Co. Aqueous solutions were prepared using deionized water.
The solution of ABTS^•+ was produced by mixing 7 mM ABTS aqueous solution with 2.45 mM potassium persulfate aqueous solution in equal quantities and allowing them to react for 12–16 h at room temperature in the dark. Radical scavenging capacity of the compounds was analyzed by mixing 10 μL of compound with 240 μL of ABTS^•+ working solution in ethanol (100 μM final concentration), and after 1 h of incubation at 30 °C the decrease in absorbance was measured spectrophotometrically at 734 nm using a Bio-Rad xMark microplate UV/VIS spectrophotometer (Bio-Rad, Hercules, CA, USA). The compounds were tested in the concentration range of 5 × 10^–7–4 × 10^–4 M. Ethanol blanks were run in each assay. Values were obtained from five replicates of each sample and three independent experiments.
Antioxidant activity was calculated as Trolox equivalent antioxidant capacity (TEAC values), consisting of the ratio between the slopes obtained from the linear correlation for concentrations of the tested compounds and Trolox with absorbance of ABTS radical. For the test compounds, which reduce ABTS^•+ absorbance by more than 60% at 100 µM, we also determined IC50 values as 50% reduction of the ABTS radical. The calculations were carried out using Origin 6.1 for Windows. Results were presented as mean ± SEM, calculated using GraphPad Prism version 6.05 for Windows, GraphPad Software.

[3] = Oxygen radical absorbance capacity (ORAC-FL) assay; details: n.a. = inactive; i.t.s. = interferes with test system
Description: We evaluated the primary antioxidant activity of synthesized 4-AHPs 5–9 in comparison with their non-fluorinated analogues 9a,b using three standard tests: ABTS, FRAP (ferric reducing antioxidant power) and ORAC (oxygen radical absorbance capacity) assays. The ABTS assay evaluates the binding of a model ABTS radical cation (ABTS^•+), which is realized by the mechanism of single electron transfer (SET) and/or hydrogen atom transfer (HAT). The FRAP assay measures the ability of compounds to reduce the ferric 2,4,6-tripyridyl-s-triazine complex [Fe(TPTZ)2]^3+ to [Fe(TPTZ)2]^2+, which occurs exclusively by the SET mechanism. The ORAC-FL assay measures the oxidative degradation of the fluorescent molecule (FL – fluorescein) after being mixed with a free peroxyl radical generator such as 2,2′-azobis-(2-methylpropionamidine) dihydrochloride (AAPH) in the presence of antioxidant (tested compound). The ORAC-FL test describes the antioxidants’ ability to yield the hydrogen atom and, consequently, it is a HAT-based assay. Trolox was used in all tests as a reference antioxidant: the antioxidant activity of the test compounds was referred to the activity of Trolox. The well-known antioxidant Edaravone was also used for comparison.
The ORAC assay was performed according to the known method, with minor variations and described by us recently.

[4] = system: Neisseria gonorrhoeae ATCC 49226/NCTC 12700; assay: Antibacterial activity against Neisseria gonorrhoeae; type: cell-based; details: read-out: MIC against Neisseria gonorrhoeae
Method: Antibacterial activity testing was done on the growth medium Difco GC medium base (Becton Dickinson, Franklin Lakes, NJ, USA) supplemented with 1% IsoVitaleX. Dilutions of chemical compounds were carried out in the range of 250–0.12 μg/mL in 24 well sterile plates (Sarstedt, Germany). Daily cultures of control bacterial strains were identified on a VITEK MS analyzer (BioMérieux, Marcy-l’Étoile, France) by MALDI-TOF mass spectrometry. The inoculation dose of N. gonorrhoeae inoculum was 10^5 CFU/mL.

[5] = Acute toxicity evaluation in mice (ip); details: CD-1, mouse, in vivo, 300 mg/kg
Method: The toxicity evaluation was performed on CD-1 mice. […] The tested compounds in 1% starch mucilage were injected intraperitoneally into three mice. Then, animals were observed during 14 days, the number of deaths was counted and % of viability calculated.

[6] = system: Sprague-Dawley (SD) rats; assay: Hot plate test (analgesic activity); type: in vivo; details: ip; for change in vivo at 15 mg/kg: Rattus norvegicus
Method: The hot plate test was conducted according to established guidelines on Sprague-Dawley (SD) rats (3 male and 3 female rodents per group). The compounds were intraperitoneally administered in the form of suspensions in 1% starch mucilage. Negative control group animals received vehicle only (1% starch mucilage). Diclofenac sodium (Hemofarm, Vršac, Serbia, 10 mg/kg in 1% starch mucilage solution) or metamizole sodium (PAO Biosynthesis, Sun Pharma, Penza, Russia, 15 mg/kg in 1% starch mucilage solution) were used as reference drugs. One and two hours after the injection, rats were placed on an electrically heated to 50 °C plate (Hot plate 60,200 series, TSE-systems, Bad Homburg, Germany) in a Plexiglas cylindrical restrainer (19 cm diameter × 30 cm). The nociceptive response time was measured by observing the appearance of rats’ movements (e.g., jumping, hind paw licking or shaking). Maximal cutoff time was set as 30 s regardless of the response in order to preclude skin damage.
Differences between the values of the latency period for the treated (experimental) and control groups of animals were considered significant at p ≤ 0.05.

[7] = system: Microsporum canis RCPF F 1643/1585; assay: Antifungal susceptibility testing, M. canis; details: Microsporum canis, RCPFF1643/1585, read-out: MIC for fungi strains inhibition, M. canis
Description: (§1) The solvent was DMSO. […] In each test, a growth control and a sterility control were used.

[8] = system: Trichophyton rubrum RCPF F 1408; assay: Antifungal susceptibility testing, T. rubrum; details: Trichophyton rubrum, RCPFF1408, read-out: MIC for fungi strains inhibition, T. rubrum
Description: as §1

[9] = system: Candida albicans RCPF Y 401/NCTC 885/653; assay: Antifungal susceptibility testing, C. albicans; details: NCTC885, read-out: MIC for fungi strains inhibition, C. albicans
Description: as §1

[10] = system: Epidermophyton floccosum RCPF F 1659/17; assay: Antifungal susceptibility testing, E. floccosum; details: Epidermophyton floccosum, RCPFF1659/17, read-out: MIC for fungi strains inhibition, E. floccosum
Description: as §1

[11] = hot plate test, rats, dose 15 mg/kg, 1 h, n.a. = inactive (p > 0.05), read-out: Latent Period Prolongation, % 1 h
[12] = hot plate test, rats, dose 15 mg/kg, 2 h, n.a. = inactive (p > 0.05), read-out: Latent Period Prolongation, % 2 h

T1 sequence (P81908 whole entry): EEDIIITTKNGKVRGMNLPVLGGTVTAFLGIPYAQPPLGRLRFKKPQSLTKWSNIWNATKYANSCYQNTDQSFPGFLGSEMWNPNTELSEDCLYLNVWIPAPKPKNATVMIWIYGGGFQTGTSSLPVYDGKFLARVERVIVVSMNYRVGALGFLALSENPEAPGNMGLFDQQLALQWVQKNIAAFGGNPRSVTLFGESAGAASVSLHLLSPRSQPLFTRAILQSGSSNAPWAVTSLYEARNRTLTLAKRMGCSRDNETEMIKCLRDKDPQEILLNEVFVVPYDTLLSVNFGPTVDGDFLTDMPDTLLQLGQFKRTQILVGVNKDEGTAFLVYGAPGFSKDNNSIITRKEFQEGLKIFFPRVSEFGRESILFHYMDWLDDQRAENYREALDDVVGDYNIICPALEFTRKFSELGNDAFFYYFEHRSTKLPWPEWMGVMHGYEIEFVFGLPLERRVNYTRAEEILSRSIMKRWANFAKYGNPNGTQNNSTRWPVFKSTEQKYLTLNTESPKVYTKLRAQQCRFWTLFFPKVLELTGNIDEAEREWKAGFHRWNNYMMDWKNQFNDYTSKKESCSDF

Structure (SMILES)	inhibition at 20 µM [1]	ABTS•+-scavenging activity, TEAC (trolox equivalent antioxidant capacity) [2]	ORAC-FL (TE, antioxidant activity in Trolox equivalents) [3]	MIC [4]	survival at 14 days [5]	change in vivo at 15 mg/kg [6, 11]	change in vivo at 15 mg/kg [6, 12]	MIC [7]	MIC [8]	MIC [9]	MIC [10]	analgesic activity in the hot plate test ([6]; SD rats, dose 15 mg/kg, 1 and 2 h)	IC50 [2]	change in vivo at 15 mg/kg ([6]; 1 h, read-out: Latent Period Prolongation, % 1 h)	change in vivo at 15 mg/kg ([6]; 2 h, read-out: Latent Period Prolongation, % 2 h)
O=C1/C(=N\Nc2ccccc2)C(C(F)(F)F)=NN1c1ccccc1 [5e, (4Z)-2-Phenyl-4-(2-phenylhydrazinylidene)-5-(trifluoromethyl)-2,4-dihydro-3H-pyrazol-3-one]	5.1 ± 0.9%	0.02	i.t.s.	> 250 µg/mL	100%	100%	129%	200 µg/mL (≈ 602 µM)	200 µg/mL (≈ 602 µM)	> 200 µg/mL	200 µg/mL (≈ 602 µM)	–	–	–	–
O=C1/C(=N\Nc2c(Cl)cccc2Cl)C(C(F)(F)F)=NN1c1ccccc1 [5j, (4Z)-4-[2-(2,6-Dichlorophenyl)hydrazinylidene]-2-phenyl-5-(trifluoromethyl)-2,4-dihydro-3H-pyrazol-3-one]	7.1 ± 1.2%	–	–	31.2 µg/mL (≈ 77.8 µM)	100%	–	–	> 200 µg/mL	> 200 µg/mL	> 200 µg/mL	> 200 µg/mL	inactive	–	–	–
NS(=O)(=O)c1ccc(N/N=C2\C(=O)N(c3ccccc3)N=C2C(F)(F)F)cc1 [5n, (4Z)-4-(2-[4-(Aminosulfonyl)phenyl]hydrazinylidene)-2-phenyl-5-(trifluoromethyl)-2,4-dihydro-3H-pyrazol-3-one]	3.5 ± 0.6%	–	i.t.s.	–	100%	–	84%	–	–	–	–	–	–	–	–
Cc1ccc(N/N=C2\C(=O)N(c3ccc(C)cc3)N=C2C(F)(F)F)cc1 [5r, (4Z)-2-(4-Methylphenyl)-4-[2-(4-methylphenyl)hydrazinylidene]-5-(trifluoromethyl)-2,4-dihydro-3H-pyrazol-3-one]	4 ± 1%	0.13 ± 0.007	–	> 250 µg/mL	100%	63.2%	74.2%	> 200 µg/mL	> 200 µg/mL	> 200 µg/mL	> 200 µg/mL	–	–	–	–
O=C1/C(=N\Nc2cccc(Cl)c2)C(C(F)(F)C(F)(F)F)=NN1c1ccccc1 [6d, (4Z)-4-[2-(3-Chlorophenyl)hydrazinylidene]-5-(pentafluoroethyl)-2-phenyl-2,4-dihydro-3H-pyrazol-3-one]	7.8 ± 1.2%	–	–	15.6 µg/mL (≈ 37.4 µM)	100%	93%	63%	> 200 µg/mL	> 200 µg/mL	> 200 µg/mL	200 µg/mL (≈ 480 µM)	–	–	–	–
Cc1ccc(N/N=C2\C(=O)NN=C2C(F)(F)C(F)(F)C(F)(F)C(F)(F)F)cc1 [8a, (4Z)-5-(Nonafluorobutyl)-4-[2-(4-methylphenyl)hydrazinylidene]-2,4-dihydro-3H-pyrazol-3-one]	–	0.43 ± 0.03	2.33 ± 0.15	250 µg/mL (≈ 595 µM)	100%	–	–	> 200 µg/mL	> 200 µg/mL	> 200 µg/mL	> 200 µg/mL	–	48.3 ± 2.2 µM	62.9%	40.4%
CN[C@@H]1[C@H](O)[C@H](NC)[C@H]2O[C@@]3(O)C(=O)C[C@@H](C)O[C@H]3O[C@@H]2[C@H]1O [Spectinomycin, reference compound]	–	–	–	15.6 µg/mL (≈ 46.9 µM)	–	–	–	–	–	–	–	–	–	–	–
Cc1c(N(C)CS(=O)(=O)O)c(=O)n(-c2ccccc2)n1C [metamizole, reference compound]	–	–	–	–	100%	34.2 ± 11.3%	64.6 ± 22.5%	–	–	–	–	–	–	–	–
